Source: ChEMBL document CHEMBL1134202, “Selectivity of inhibition of matrix metalloproteases MMP-3 and MMP-2 by succinyl hydroxamates and their carboxylic acid analogues is dependent on P3' group chirality” (Bioorg Med Chem Lett, 2001)

Assays:
[1] = molecular target: Matrix metalloproteinase-14 (Homo sapiens, UniProt P50281)
[2] = molecular target: Matrix metalloproteinase-9 (Homo sapiens, UniProt P14780)
[3] = molecular target: Stromelysin-1 (Homo sapiens, UniProt P08254)
Chain of Stromelysin-1 (P08254 whole entry): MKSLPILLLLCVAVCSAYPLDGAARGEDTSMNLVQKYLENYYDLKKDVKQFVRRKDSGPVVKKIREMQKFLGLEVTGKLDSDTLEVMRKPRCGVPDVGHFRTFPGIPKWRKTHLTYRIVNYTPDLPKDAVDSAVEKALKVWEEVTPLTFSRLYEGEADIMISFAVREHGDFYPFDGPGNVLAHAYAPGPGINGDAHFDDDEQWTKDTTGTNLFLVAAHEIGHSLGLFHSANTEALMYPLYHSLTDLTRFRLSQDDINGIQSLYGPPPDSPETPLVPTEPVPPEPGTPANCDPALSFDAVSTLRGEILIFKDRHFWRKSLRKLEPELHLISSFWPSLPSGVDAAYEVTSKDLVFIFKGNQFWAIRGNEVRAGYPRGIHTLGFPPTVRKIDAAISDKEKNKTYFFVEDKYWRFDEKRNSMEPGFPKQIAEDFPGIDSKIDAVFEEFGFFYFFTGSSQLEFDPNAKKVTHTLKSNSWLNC

Chain of Matrix metalloproteinase-9 (P14780 whole entry): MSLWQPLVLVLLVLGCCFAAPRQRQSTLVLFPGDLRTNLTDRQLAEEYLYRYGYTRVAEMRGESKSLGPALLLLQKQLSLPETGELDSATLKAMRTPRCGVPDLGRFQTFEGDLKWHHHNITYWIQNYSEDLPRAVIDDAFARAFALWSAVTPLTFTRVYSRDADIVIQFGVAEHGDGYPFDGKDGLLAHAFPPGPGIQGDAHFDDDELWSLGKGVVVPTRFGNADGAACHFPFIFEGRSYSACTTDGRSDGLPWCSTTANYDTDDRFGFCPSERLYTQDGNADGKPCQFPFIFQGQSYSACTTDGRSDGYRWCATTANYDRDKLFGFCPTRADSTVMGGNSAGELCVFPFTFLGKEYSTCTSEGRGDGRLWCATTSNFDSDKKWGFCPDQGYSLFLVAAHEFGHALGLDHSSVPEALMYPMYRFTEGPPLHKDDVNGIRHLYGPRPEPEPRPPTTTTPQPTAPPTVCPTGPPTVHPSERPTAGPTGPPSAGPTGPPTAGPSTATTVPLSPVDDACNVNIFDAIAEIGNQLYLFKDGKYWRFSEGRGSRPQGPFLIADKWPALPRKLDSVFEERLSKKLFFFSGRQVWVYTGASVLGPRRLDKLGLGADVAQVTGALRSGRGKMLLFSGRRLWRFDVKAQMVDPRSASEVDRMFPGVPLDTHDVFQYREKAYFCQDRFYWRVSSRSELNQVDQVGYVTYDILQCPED

IC50 [1] | IC50 [2] | Ki [3] | Structure (SMILES)
2.9 nM | 0.67 nM |  | CNC(=O)[C@H](Cc1ccccc1)NC(=O)[C@H](CC(C)C)[C@H](CSc1cccs1)C(=O)NO [BATIMASTAT]
 |  | 26 nM | CNC(=O)[C@H](Cc1c[nH]c2ccccc12)NC(=O)[C@@H](CC(=O)NO)CC(C)C [ILOMASTAT]
